Laboratory results from US4988723A, “Benzopyran derivatives and their use as anti-hypertensives” (Fujisawa Pharmaceutical Co., Ltd., priority 1988, dated 1991).

Columns and labels:
[1] = system: normotensive rats (male Wistar strain); experiment: Effect on normotensive rats (hypotensive activity, mean arterial pressure after intravenous dosing); type: in vivo, rat; conditions: 1.0 mg/kg intravenously
Procedure: Male Wistar strain rats aged 10-11 weeks, weighing about 250 g were used after going unfed overnight. Under ether anesthesia, polyethylene cannula were inserted in the femoral artery for measuring blood pressure and in the femoral vein for injection of the test compound. About 2 hours after the operation, test compound was given intravenously. Blood pressure was measured at the femoral artery by means of a pressure transducer and recorded as electrically integrated values of mean arterial pressure.

[2] = system: spontaneous hypertensive rats; experiment: Effect on spontaneous hypertensive rats (hypotensive activity, mean blood pressure after oral dosing); type: in vivo, rat
Procedure: 14 to 17-week-old male spontaneous hypertensive rats with mean arterial blood pressure of about 150 mmHg, weighing 300-375 g, were used. The animals were cannulated in the left femoral artery and the mean blood pressure and heart rate were measured with a pressure-transducer. The drugs were given orally. The animals were deprived of food for about 18 hours before oral dosing. The test drugs were suspended in 0.5% methylcellulose, and given in oral dose of 0.1 mg/kg and 1.0 mg/kg.

SMILES | Effect Max (maximum decrease of blood pressure, mean ratio) [1] | Effect max (maximum decrease of blood pressure, mean ratio) ([2]; 0.1 mg/kg orally) | T 1/2 (duration of half of maximum decrease of blood pressure) ([2]; 0.1 mg/kg orally) | Effect max (maximum decrease of blood pressure, mean ratio) ([2]; 1.0 mg/kg orally) | T 1/2 (duration of half of maximum decrease of blood pressure) ([2]; 1.0 mg/kg orally)
CN1CCN([C@@H]2c3cc(C#N)ccc3OC(C)(C)[C@H]2O)C1=NC#N (relative stereo) [trans-4-(2-Cyanoimino-3-methylimidazolidin-1-yl)-3,4-dihydro-3-hydroxy-2,2-dimethyl-2H-1-benzopyran-6-carbonitrile] | 48.0% | – | – | – | –
CC1(C)Oc2ccc(C#N)cc2[C@@H](N2CCSC2=NC#N)[C@@H]1O [(3S,4R)-4-(2-Cyanoiminothiazolidin-3-yl)-3,4-dihydro-3-hydroxy-2,2-dimethyl-2H-1-benzopyran-6-carbonitrile] | – | 20.7% | 2.25 h | 60.0% | 3.75 h
